According to patent US20070066543A1, “Treatment of tay sachs or sandhoff diseases by enhancing hexosaminidase activity” (The Hospital For Sick Children, priority 2003, published 2007):
Where two headings read alike, the source gives them in different places. Values belong to the molecule of their own block, whether it stands above or below them.

Experiments:
[1] = tested on: hexosaminidase A in ASD fibroblasts; assay: Hexosaminidase activity in adult Sandhoff (ASD) fibroblasts grown with compound; type: cell-based, human; conditions: ASD cells
Procedure: Fibroblast cell lines obtained from homozygous adult onset Tay-Sachs (ATSD), heterozygous adult onset Tay-Sachs (Het ATSD), infantile Tay-Sachs (ITSD and 4917), adult Sandhoff (ASD) and infantile Sandhoff (ISD) were cultured in the presence of various concentrations of ACAS and then examined for hexosaminidase A activity as described above. ACAS treatment gave increased hexosaminidase A activity in ATSD, ASD and ISD cells.

[2] = target: hexosaminidase A in wild type fibroblasts (Homo sapiens, UniProt P06865+P07686); assay: Hexosaminidase A activity (MUGS) in wild type fibroblasts grown with compound; type: cell-based
hexosaminidase A in wild type fibroblasts, sequence (P07686 315-556 limits assumed, one chain of several): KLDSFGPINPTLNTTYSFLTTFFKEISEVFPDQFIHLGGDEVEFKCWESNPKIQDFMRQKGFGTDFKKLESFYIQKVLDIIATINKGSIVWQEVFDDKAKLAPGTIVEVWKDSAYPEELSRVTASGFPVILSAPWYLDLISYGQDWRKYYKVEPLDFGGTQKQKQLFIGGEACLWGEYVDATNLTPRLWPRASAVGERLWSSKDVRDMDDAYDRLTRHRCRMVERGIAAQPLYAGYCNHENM
hexosaminidase A in wild type fibroblasts, sequence (P07686 122-311 limits assumed, one chain of several): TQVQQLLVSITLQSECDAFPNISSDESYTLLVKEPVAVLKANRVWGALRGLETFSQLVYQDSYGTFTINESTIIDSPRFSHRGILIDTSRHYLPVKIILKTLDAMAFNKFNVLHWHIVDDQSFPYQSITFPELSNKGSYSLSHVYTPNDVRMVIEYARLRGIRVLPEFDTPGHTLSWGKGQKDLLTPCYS
hexosaminidase A in wild type fibroblasts, sequence (P07686 50-107 partner limits assumed, one chain of several): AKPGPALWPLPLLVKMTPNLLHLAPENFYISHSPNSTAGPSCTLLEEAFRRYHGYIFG

[3] = target: T1, hexosaminidase A/S in ISD cells (Homo sapiens, UniProt P06865); assay: Hexosaminidase activity in infantile Sandhoff (ISD) fibroblasts grown with compound; type: cell-based
T1 construct: endogenous in cells; host or cells: infantile Sandhoff (ISD) patient fibroblasts
T1 sequence (P06865 89-529): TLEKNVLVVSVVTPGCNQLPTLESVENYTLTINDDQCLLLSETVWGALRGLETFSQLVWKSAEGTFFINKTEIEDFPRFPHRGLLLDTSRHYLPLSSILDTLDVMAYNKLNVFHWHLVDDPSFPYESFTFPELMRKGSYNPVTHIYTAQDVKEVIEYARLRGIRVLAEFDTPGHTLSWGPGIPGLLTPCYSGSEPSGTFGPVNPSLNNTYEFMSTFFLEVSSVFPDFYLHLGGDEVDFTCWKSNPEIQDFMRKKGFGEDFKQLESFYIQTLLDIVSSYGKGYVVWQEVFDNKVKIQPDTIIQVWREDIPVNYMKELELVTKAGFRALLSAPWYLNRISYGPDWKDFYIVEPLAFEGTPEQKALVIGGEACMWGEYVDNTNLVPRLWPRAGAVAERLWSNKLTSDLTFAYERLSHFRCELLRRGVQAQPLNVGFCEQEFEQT
T1 sequence (P06865 23-74 limits assumed): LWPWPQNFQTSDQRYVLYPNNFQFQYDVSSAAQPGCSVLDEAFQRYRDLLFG

[4] = tested on: hexosaminidase A in ITSD fibroblasts; assay: MUGS hydrolysis in infantile Tay-Sachs (ITSD) fibroblasts grown with compound; type: cell-based, human
[5] = tested on: fibroblasts from a chronic TSD patient; conditions: human, 5 days
[6] = target: human hexosaminidase A (Homo sapiens, UniProt P06865+P07686); assay: Ki on human hexosaminidase A; type: biochemical
human hexosaminidase A, sequence (P07686 315-556 limits assumed, one chain of several): as the sequence (P07686 315-556 limits assumed, one chain of several) above
human hexosaminidase A, sequence (P07686 122-311 limits assumed, one chain of several): as the sequence (P07686 122-311 limits assumed, one chain of several) above
human hexosaminidase A, sequence (P07686 50-107 partner limits assumed, one chain of several): as the sequence (P07686 50-107 partner limits assumed, one chain of several) above

[7] = target: T2, hexosaminidase from the bacterial species Streptomyces plicatus (Sp. Hex.) (Streptomyces plicatus, UniProt O85361); conditions: value carries reference superscript 56; cited from earlier work
T2 sequence (O85361 1-506): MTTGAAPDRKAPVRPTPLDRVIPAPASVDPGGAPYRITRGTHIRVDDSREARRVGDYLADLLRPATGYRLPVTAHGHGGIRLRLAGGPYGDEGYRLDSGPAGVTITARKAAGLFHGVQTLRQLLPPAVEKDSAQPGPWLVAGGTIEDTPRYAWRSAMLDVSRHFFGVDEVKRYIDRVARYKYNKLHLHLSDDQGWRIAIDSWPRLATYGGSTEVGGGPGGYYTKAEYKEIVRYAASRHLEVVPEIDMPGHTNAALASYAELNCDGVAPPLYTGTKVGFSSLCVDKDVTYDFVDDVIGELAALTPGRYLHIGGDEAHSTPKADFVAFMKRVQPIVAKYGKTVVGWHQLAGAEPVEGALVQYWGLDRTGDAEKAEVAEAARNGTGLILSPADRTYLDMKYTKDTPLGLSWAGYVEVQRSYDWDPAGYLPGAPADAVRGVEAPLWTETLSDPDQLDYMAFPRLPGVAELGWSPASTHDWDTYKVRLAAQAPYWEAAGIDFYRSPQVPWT

[8] = target: T3, hexosaminidase B (Homo sapiens, UniProt P07686); assay: Heat denaturation of hexosaminidase B at 60° C.; type: biochemical; conditions: 60° C. up to 40 minutes, 2.4 μm NAG-thiazoline, MUG
T3 construct: from tissue; host or cells: human placenta
T3 sequence (P07686 315-556 limits assumed): as the sequence (P07686 315-556 limits assumed, one chain of several) above
T3 sequence (P07686 122-311 limits assumed): as the sequence (P07686 122-311 limits assumed, one chain of several) above
T3 sequence (P07686 50-107 partner limits assumed): as the sequence (P07686 50-107 partner limits assumed, one chain of several) above

[9] = target: T3, hexosaminidase B; assay: Denaturation of hexosaminidase B by guanidine hydrochloride; type: biochemical
[10] = tested on: hexosaminidase A plus B; assay: Brain hexosaminidase A plus B in NGT-treated mice; type: in vivo; conditions: 40 mg s.c. every 4 days for 15 days
[11] = tested on: adult mice; assay: Toxicity studies in adult mice; type: in vivo
[12] = tested on: β-mannosidase; assay: Serum/plasma β-mannosidase in NGT-treated mice (MUM); type: in vivo
[13] = tested on: hexosaminidases A plus B (total Hex); assay: Plasma hexosaminidase A plus B in NGT-treated mice (MUG); type: in vivo; conditions: CD1 mice, 10, 40 or 100 mg i.p., 2 days later
[14] = target: T2, hexosaminidase from the bacterial species Streptomyces plicatus (Sp. Hex.); assay: Ki on bacterial hexosaminidase (MUG assay); type: biochemical
[15] = adult male CD1 mice, 40 mg/mouse i.v. or s.c. every four days up to 30 days

SMILES: CC(=O)NC1CN2CCC(O)C2C(O)C1O (stereo not drawn) [ACAS, 6-acetamido-6-deoxy-castanospermine]
hexosaminidase A activity ([1]; various concentrations of ACAS): increased
hexosaminidase A activity ([2]; WT fibroblasts, all concentrations): decreased
hexosaminidase A activity ([2]; wild type cells, ACAS 4 days, MUGS): increased
hexosaminidase A activity ([3]; various concentrations of ACAS): increased
hexosaminidase A activity ([4]; ITSD fibroblasts, all concentrations): decreased
hexosaminidase A activity ([4]; infantile Tay-Sachs cells, ACAS 4 days, MUGS): not

SMILES: CC1=NC2[C@@H](O)[C@H](O)C(CO)O[C@H]2S1 (stereo partly drawn) [NGT, N-acetylglucosamine-thiazoline]
hexosaminidase B activity after heat denaturation versus control [8]: preserved greater hexosaminidase B activity than seen in the control
protection of hexosaminidase B against denaturation by guanidine hydrochloride [9]: protect
brain hexosaminidase A plus B [10]: essentially unchanged
hexosaminidase A and S activity ([1]; NGT): increased
increase in hexosaminidase A activity ([2]; WT fibroblasts, NGT 3 mM): two fold
activity of Hexosaminidase A/S (MUGS) ([3]; 2 days, varying concentrations): increased
hexosaminidase S activity ([3]; NGT): increased
acute or sub-acute toxicity [11, 15]: No acute or sub-acute toxicity was observed
histological examination of autopsied tissues [11, 15]: no changes
signs of toxicity ([11]; adult mice, 10, 40 or 100 mg i.p.): None of the mice treated with inhibitors showed any signs of toxicity
MUGS hydrolysis with increasing concentration ([4]; ITSD cells): decline
mode of inhibition of hexosaminidase A [6]: competitive inhibitors
plasma β-mannosidase level ([12]; CD1 mice, 10, 40 or 100 mg i.p., 2 days later): unchanged
serum βD mannosidase levels versus control ([12]; mice, 10, 40 or 100 mg i.p., 3 to 4 days after treatment): generally the same
plasma hexosaminidase A plus B (total Hex) level [13]: unchanged
Ki [7]: 20 µM

More lines, main results first:

concentration at which cell lysis occurred [5]: > 200 mM
SMILES: CC(=O)N[C@@H]1[C@@H](O)[C@@H](O)[C@@H](CO)O[C@H]1O [GalNAc, N-acetyl-β-D-galactosamine]

mode of inhibition of hexosaminidase A [6]: competitive inhibitors
SMILES: CC1=NC2[C@@H](O)[C@@H](O)C(CO)O[C@H]2S1 (stereo partly drawn) [NAGal-thiazoline (2.6), N-acetyl galactosamine-thiazoline]
Ki [7]: 100 µM

Ki ([6]; read-out: Ki Hex A): 90 µM
Ki [14]: 38 µM
SMILES: CC(=O)NC1NCCC(O)C1O (stereo not drawn) [XylNAc-isofagomine•HCI (2.7), XylNAc-isofagomine•HCI]
